Legend:
PARP2 [1] = biological target: T1, PARP2 (Homo sapiens, UniProt Q9UGN5); test: Selectivity profile (other isoforms of PARP and NRP family); assay type: biochemical
AMPKα1/β1/γ1 = AMPKα1/β1/γ1 (Homo sapiens, UniProt P54619+Q13131+Q9Y478); test: Selectivity profile (123 kinase panel); assay type: biochemical
EPHA7 = EPHA7 (Homo sapiens, UniProt Q15375); test: Selectivity profile (123 kinase panel); assay type: biochemical
PARP8 = PARP8 (Homo sapiens, UniProt Q8N3A8); test: Selectivity profile (other isoforms of PARP and NRP family); assay type: biochemical
EPHA4 = EPHA4 (Homo sapiens, UniProt P54764); test: Selectivity profile (123 kinase panel); assay type: biochemical
Chain of EPHA4 (P54764 20-986, species assumed): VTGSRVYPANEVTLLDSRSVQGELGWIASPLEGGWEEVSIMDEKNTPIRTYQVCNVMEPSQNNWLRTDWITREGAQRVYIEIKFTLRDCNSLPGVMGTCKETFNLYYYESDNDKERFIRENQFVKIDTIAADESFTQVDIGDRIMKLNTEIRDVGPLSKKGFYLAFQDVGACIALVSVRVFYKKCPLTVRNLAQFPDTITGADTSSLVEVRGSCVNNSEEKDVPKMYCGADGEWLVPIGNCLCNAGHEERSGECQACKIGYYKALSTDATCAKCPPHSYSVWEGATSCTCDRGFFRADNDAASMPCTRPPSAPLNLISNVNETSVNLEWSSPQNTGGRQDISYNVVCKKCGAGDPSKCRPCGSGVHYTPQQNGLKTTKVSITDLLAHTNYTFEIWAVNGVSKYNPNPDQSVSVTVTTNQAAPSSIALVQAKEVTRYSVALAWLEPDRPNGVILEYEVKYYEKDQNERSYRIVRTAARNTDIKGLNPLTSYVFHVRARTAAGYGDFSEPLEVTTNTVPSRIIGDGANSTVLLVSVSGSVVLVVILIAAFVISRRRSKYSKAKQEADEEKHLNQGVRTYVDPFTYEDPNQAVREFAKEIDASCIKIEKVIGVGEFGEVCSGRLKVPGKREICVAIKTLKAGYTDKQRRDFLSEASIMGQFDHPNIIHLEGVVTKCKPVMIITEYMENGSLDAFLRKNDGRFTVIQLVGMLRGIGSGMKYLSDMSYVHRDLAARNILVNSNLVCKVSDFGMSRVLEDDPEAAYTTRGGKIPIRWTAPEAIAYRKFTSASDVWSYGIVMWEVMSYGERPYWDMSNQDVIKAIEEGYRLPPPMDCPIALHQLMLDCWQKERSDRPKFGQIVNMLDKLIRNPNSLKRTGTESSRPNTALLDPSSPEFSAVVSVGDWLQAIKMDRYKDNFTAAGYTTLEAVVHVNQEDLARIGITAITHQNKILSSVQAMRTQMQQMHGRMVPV

MARK4 = MARK4 (Homo sapiens, UniProt Q96L34); test: Selectivity profile (123 kinase panel); assay type: biochemical
PARP7 = PARP7 (Homo sapiens, UniProt Q7Z3E1); test: Specificity testing by MST assay; assay type: binding
Experimental: (§1) All samples were diluted in 1 × PBST. […] Affinity Analysis software.

PARP2 [2] = biological target: T1, PARP2; test: Specificity testing by MST assay; assay type: binding
Experimental: as §1

CaMK1α = CaMK1α (Homo sapiens, UniProt Q14012); test: Selectivity profile (123 kinase panel); assay type: biochemical
NIM1K = NIM1K (Homo sapiens, UniProt Q8IY84); test: Selectivity profile (123 kinase panel); assay type: biochemical
JAK1 = JAK1 (Homo sapiens, UniProt P23458); test: Selectivity profile (123 kinase panel); assay type: biochemical
HCK = HCK (Homo sapiens, UniProt P08631); test: Selectivity profile (123 kinase panel); assay type: biochemical
MRCKβ = MRCKβ (Homo sapiens, UniProt Q9Y5S2); test: Selectivity profile (123 kinase panel); assay type: biochemical
EPHA1 = EPHA1 (Homo sapiens, UniProt P21709); test: Selectivity profile (123 kinase panel); assay type: biochemical
AurA = AurA (Homo sapiens, UniProt O14965); test: Selectivity profile (123 kinase panel); assay type: biochemical
BRK = BRK (Homo sapiens, UniProt Q13882); test: Selectivity profile (123 kinase panel); assay type: biochemical
NuaK2 = NuaK2 (Homo sapiens, UniProt Q9H093); test: Selectivity profile (123 kinase panel); assay type: biochemical
PARP9 = PARP9 (Homo sapiens, UniProt Q8IXQ6); test: Selectivity profile (other isoforms of PARP and NRP family); assay type: biochemical
CHK1 = CHK1 (Homo sapiens, UniProt O14757); test: Selectivity profile (123 kinase panel); assay type: biochemical
Chain of CHK1 (O14757 whole entry): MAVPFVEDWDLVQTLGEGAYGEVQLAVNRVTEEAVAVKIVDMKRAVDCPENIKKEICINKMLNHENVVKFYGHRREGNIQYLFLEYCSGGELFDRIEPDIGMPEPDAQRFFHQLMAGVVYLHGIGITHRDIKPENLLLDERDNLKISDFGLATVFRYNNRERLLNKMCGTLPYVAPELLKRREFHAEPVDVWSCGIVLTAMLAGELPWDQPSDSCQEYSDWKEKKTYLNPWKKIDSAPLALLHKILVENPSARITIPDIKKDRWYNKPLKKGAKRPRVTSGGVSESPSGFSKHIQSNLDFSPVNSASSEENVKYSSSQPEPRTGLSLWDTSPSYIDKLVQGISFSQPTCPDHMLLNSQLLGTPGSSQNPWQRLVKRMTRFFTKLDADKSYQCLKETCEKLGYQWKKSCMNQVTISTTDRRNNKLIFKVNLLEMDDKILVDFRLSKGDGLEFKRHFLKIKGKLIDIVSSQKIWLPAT

INSR = INSR (Homo sapiens, UniProt P06213); test: Selectivity profile (123 kinase panel); assay type: biochemical
Chain of INSR (P06213 28-1382): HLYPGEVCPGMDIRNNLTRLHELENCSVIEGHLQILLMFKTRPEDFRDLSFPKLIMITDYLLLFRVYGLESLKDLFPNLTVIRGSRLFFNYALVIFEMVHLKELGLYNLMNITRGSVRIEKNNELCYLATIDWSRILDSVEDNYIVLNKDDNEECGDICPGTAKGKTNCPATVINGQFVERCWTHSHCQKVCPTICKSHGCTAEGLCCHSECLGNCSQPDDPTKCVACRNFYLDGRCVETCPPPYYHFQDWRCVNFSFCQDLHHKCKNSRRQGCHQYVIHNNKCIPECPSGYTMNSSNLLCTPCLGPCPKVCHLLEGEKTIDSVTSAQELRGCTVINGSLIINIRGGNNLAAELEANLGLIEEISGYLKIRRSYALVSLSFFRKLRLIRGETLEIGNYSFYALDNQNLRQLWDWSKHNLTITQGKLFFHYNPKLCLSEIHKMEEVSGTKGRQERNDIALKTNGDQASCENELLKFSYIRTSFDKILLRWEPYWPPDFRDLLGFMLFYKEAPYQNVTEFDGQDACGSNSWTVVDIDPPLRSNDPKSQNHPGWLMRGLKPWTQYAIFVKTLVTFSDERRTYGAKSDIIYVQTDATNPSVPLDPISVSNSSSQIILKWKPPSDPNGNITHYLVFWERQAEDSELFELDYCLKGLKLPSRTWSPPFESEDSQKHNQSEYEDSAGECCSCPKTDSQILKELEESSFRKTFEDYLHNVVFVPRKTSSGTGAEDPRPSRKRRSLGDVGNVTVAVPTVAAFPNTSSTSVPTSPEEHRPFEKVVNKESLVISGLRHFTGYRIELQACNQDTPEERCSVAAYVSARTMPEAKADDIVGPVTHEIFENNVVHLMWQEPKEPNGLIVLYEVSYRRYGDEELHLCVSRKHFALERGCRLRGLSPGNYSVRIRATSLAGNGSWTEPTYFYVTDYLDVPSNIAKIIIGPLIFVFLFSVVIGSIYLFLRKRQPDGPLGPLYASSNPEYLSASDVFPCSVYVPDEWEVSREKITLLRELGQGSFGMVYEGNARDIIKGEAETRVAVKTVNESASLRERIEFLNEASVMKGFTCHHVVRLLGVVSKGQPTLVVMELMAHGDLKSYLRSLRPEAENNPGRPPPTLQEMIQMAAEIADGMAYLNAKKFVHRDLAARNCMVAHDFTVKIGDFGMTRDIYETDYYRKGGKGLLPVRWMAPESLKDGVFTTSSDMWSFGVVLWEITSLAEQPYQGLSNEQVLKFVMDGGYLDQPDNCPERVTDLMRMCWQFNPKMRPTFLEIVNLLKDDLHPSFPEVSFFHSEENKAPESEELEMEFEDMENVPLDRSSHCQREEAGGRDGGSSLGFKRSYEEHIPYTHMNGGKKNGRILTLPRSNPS

DCAMKL1 = DCAMKL1 (Homo sapiens, UniProt O15075); test: Selectivity profile (123 kinase panel); assay type: biochemical
KDR = KDR (Homo sapiens, UniProt P35968); test: Selectivity profile (123 kinase panel); assay type: biochemical
BMX = BMX (Homo sapiens, UniProt P51813); test: Selectivity profile (123 kinase panel); assay type: biochemical
KIT = KIT (Homo sapiens, UniProt P10721); test: Selectivity profile (123 kinase panel); assay type: biochemical
MDA-MB-231 cells = test: In vitro antiproliferation assay (MTT); assay type: cell-based; conditions: Homo sapiens, MDA-MB-231
Experimental: Cell viability was measured by MTT assays. […] Afterward, the medium was removed. MTT (5 mg/mL) was dissolved in phosphate-buffered saline (PBS) and filter-sterilized, and then, 20 μL of the prepared MTT solution was added to each well, and the cells were incubated for another 4 h until a purple precipitate was visible. The supernatant was removed by centrifugation, and DMSO (150 μL/well) was added to dissolve the insoluble crystals. The absorbance was determined using an enzyme-linked immunosorbent assay reader at a test wavelength of 570 nm. The assays were performed three times in a parallel manner. The non-linear regression was used to plot a Dose-Response-Inhibition to determine the value of the IC50. […] The data were analyzed using GraphPad Prism 9 software.

DYRK2 = DYRK2 (Homo sapiens, UniProt Q92630); test: Selectivity profile (123 kinase panel); assay type: biochemical
LYNa = LYNa (Homo sapiens, UniProt P07948); test: Selectivity profile (123 kinase panel); assay type: biochemical
GSK3α = GSK3α (Homo sapiens, UniProt P49840); test: Selectivity profile (123 kinase panel); assay type: biochemical
AKT3 = AKT3 (Homo sapiens, UniProt Q9Y243); test: Selectivity profile (123 kinase panel); assay type: biochemical
DDR2 = DDR2 (Homo sapiens, UniProt Q16832); test: Selectivity profile (123 kinase panel); assay type: biochemical
EPHA5 = EPHA5 (Homo sapiens, UniProt P54756); test: Selectivity profile (123 kinase panel); assay type: biochemical
DYRK1B = DYRK1B (Homo sapiens, UniProt Q9Y463); test: Selectivity profile (123 kinase panel); assay type: biochemical
BRSK1 = BRSK1 (Homo sapiens, UniProt Q8TDC3); test: Selectivity profile (123 kinase panel); assay type: biochemical
Chain of BRSK1 (Q8TDC3 whole entry): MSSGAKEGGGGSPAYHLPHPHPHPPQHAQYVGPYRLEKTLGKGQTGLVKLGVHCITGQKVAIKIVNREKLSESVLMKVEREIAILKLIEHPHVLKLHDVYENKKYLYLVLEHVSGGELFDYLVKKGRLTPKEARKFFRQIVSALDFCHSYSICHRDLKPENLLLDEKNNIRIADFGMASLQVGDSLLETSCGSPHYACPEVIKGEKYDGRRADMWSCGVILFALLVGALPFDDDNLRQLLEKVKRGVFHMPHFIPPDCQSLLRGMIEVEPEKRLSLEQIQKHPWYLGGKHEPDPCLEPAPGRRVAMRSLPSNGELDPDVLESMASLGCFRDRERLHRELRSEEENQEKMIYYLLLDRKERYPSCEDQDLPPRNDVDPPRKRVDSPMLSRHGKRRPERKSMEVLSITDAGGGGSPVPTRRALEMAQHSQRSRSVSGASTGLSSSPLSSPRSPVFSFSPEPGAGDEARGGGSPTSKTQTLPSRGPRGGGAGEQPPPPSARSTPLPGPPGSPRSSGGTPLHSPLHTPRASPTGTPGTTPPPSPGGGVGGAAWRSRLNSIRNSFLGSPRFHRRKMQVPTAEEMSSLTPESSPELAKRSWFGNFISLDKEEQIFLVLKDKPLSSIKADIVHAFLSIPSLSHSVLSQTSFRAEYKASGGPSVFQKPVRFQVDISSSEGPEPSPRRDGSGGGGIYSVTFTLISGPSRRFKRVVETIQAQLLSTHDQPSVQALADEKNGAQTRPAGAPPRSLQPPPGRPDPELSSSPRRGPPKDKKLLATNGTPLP

AKT2 = AKT2 (Homo sapiens, UniProt P31751); test: Selectivity profile (123 kinase panel); assay type: biochemical
ITK = ITK (Homo sapiens, UniProt Q08881); test: Selectivity profile (123 kinase panel); assay type: biochemical
Erk1 = Erk1 (Homo sapiens, UniProt P27361); test: Selectivity profile (123 kinase panel); assay type: biochemical
MSK1 = MSK1 (Homo sapiens, UniProt O75582); test: Selectivity profile (123 kinase panel); assay type: biochemical
CK1γ2 = CK1γ2 (Homo sapiens, UniProt P78368); test: Selectivity profile (123 kinase panel); assay type: biochemical
BRAF = BRAF (Homo sapiens, UniProt P15056); test: Selectivity profile (123 kinase panel); assay type: biochemical
Chain of BRAF (P15056 whole entry): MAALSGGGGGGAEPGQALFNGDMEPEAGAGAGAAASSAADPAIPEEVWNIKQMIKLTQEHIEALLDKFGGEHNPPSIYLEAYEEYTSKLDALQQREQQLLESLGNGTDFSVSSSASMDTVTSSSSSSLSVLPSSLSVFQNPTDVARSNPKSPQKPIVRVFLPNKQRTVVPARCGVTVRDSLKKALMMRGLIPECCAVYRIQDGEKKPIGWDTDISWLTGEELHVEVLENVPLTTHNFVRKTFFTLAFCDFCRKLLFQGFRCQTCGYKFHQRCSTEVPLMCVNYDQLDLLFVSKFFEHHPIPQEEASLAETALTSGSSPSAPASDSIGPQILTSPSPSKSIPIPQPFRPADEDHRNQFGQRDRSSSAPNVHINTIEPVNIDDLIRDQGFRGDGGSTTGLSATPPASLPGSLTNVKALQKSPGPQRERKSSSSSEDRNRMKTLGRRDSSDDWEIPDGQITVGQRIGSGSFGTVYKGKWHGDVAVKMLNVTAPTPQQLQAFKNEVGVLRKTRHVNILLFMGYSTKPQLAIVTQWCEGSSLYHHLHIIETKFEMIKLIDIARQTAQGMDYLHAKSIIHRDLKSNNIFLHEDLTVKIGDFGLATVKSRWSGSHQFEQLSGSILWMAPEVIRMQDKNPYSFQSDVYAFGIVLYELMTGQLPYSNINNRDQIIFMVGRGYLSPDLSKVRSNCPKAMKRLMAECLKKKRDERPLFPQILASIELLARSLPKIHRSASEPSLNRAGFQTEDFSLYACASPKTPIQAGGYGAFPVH

T1 sequence (Q9UGN5 whole entry, canonical isoform): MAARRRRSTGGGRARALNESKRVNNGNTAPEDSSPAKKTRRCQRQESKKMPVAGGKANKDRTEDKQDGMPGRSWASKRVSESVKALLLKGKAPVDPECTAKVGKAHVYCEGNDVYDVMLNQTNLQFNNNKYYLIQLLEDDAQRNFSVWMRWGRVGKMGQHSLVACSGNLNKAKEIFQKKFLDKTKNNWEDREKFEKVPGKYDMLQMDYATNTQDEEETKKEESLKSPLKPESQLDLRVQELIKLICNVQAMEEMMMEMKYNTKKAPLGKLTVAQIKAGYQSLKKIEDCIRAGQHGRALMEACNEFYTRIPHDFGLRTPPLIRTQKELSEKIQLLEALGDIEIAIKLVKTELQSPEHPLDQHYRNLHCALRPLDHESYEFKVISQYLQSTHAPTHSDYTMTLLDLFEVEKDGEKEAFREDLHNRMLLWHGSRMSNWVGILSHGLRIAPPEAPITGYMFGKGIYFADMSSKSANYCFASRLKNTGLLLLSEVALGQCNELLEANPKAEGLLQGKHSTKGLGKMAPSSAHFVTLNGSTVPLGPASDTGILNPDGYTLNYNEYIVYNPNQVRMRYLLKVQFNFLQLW

IC50 (PARP2 [1]): > 10 µM
IC50 (AMPKα1/β1/γ1): > 10 µM
IC50 (EPHA7): > 10 µM
IC50 (PARP8): > 10 µM
IC50 (EPHA4): > 10 µM
IC50 (MARK4): > 10 µM
Kd (PARP7): > 10 µM
Kd (PARP2 [2]): > 10 µM
IC50 (CaMK1α): > 10 µM
IC50 (NIM1K): > 10 µM
IC50 (JAK1): > 10 µM
IC50 (HCK): > 10 µM
IC50 (MRCKβ): > 10 µM
IC50 (EPHA1): > 10 µM
IC50 (AurA): > 10 µM
IC50 (BRK): > 10 µM
IC50 (NuaK2): > 10 µM
IC50 (PARP9): > 10 µM
IC50 (CHK1): > 10 µM
IC50 (INSR): > 10 µM
IC50 (DCAMKL1): > 10 µM
IC50 (KDR): > 10 µM
IC50 (BMX): > 10 µM
IC50 (KIT): > 10 µM
IC50 (MDA-MB-231 cells; 168 h, concentration needed to reduce cell growth by 50% following 7 days cell treatment, read-out: IC50): 0.21 µM
IC50 (DYRK2): > 10 µM
IC50 (LYNa): > 10 µM
IC50 (GSK3α): > 10 µM
IC50 (AKT3): > 10 µM
IC50 (DDR2): > 10 µM
IC50 (EPHA5): > 10 µM
IC50 (DYRK1B): > 10 µM
IC50 (BRSK1): > 10 µM
IC50 (AKT2): > 10 µM
IC50 (ITK): > 10 µM
IC50 (Erk1): > 10 µM
IC50 (MSK1): > 10 µM
IC50 (CK1γ2): > 10 µM
IC50 (BRAF): > 10 µM
SMILES: NC(N)=NCCC[C@H](NCN1CCN(C(=O)c2cc(Cc3n[nH]c(=O)c4ccccc34)ccc2F)CC1)C(=O)O [PPNR-4]
inhibition at 2 µM (MDA-MB-231 cells; 2 μM, read-out: cell inhibition rate): > 80%

Reference: PMC11637875, “Discovery of novel PARP1/NRP1 dual-targeting inhibitors with strong antitumor potency” (Frontiers in Pharmacology, 2024)
